From ChEMBL document CHEMBL2095176, “GSK Tuberculosis Screening Data”
Converted amounts (≈) assume the structure as drawn.

Each molecule was assayed on Mycobacterium tuberculosis variant bovis BCG (assay: microbe, parasite or virus in culture).
Format: functional

SMILES	MIC90 [µM]
CCCCCNc1nc(N2CCCC2)c2c(c1C#N)CCN(C)C2	1.6 (≈ 0.524 µg/mL)
O=C(Nc1nnc(-c2ccc(Br)cc2)o1)c1cccc(F)c1	2.2 (≈ 0.797 µg/mL)
COc1ccc(-c2ccc(Nc3cccc(S(=O)(=O)CCNC4CCC4)c3)nc2)cn1	1.6 (≈ 0.702 µg/mL)
Cc1ccc(C)c(-c2nnc(NC(=O)c3ccc(Br)s3)o2)c1	1.6 (≈ 0.605 µg/mL)
CC(=O)Nc1cc(C(=O)Nc2ccc(C3=NCCN3)cc2)ccc1C(=O)Nc1ccc(C2=NCCN2)cc1	1.6 (≈ 0.815 µg/mL)
CC(Sc1nc2ccccc2[nH]1)C(=O)NNC(=O)c1ccncc1 (centres undefined)	1.6 (≈ 0.546 µg/mL)
Cl.Cl.O=C(Nc1ccc(NC2=NCCN2)cc1)c1ccc(C(=O)Nc2ccc(NC3=NCCN3)cc2)cc1	0.4
COc1ccc(-c2nsc(SCC(=O)N3CCCC3)n2)cc1	5.6 (≈ 1.88 µg/mL)
CN(Cc1nc2ccccc2s1)C(=O)c1cccc(NC(=O)c2ccncc2)c1	1.7 (≈ 0.684 µg/mL)
Cc1cc(C)c2cc(CN(Cc3cccnc3)C(=O)c3ccccc3F)c(Cl)nc2c1	1.7 (≈ 0.738 µg/mL)
CC(C)(C)c1ccc(-c2nnc(SCC(=O)OC3CCCCC3)o2)cc1	8.1 (≈ 3.03 µg/mL)
O=C(O)C(F)(F)F.c1ccc(C[C@H]2CN(c3nccc(Oc4ccc(-n5ccnc5)cc4)n3)CCN2)cc1	8.2
O=C(Nc1nc(-c2ccccn2)cs1)c1ccno1	1.8 (≈ 0.49 µg/mL)
COc1ccc(O)c(C(=O)c2cnn(C(=O)c3cccs3)c2)c1	1.8 (≈ 0.591 µg/mL)
FC(F)(F)c1ccc2c(N3CCCNCC3)ncc(-c3ccsc3)c2n1	1.8 (≈ 0.681 µg/mL)
N#Cc1nc(-c2ccc(F)cc2)oc1S(=O)(=O)c1ccc(Br)cc1	1.8 (≈ 0.733 µg/mL)
Cc1cc(NC(=O)c2cccs2)n(-c2nc(C)c(C)c(=O)[nH]2)n1	1.8 (≈ 0.593 µg/mL)
Cc1n[nH]c(C)c1S(=O)(=O)NCc1nc(NCCCc2ccccc2)c2ccccc2n1	5.9 (≈ 2.66 µg/mL)
Nc1ccccc1Nc1ccc2c(c1)OCO2	1.7 (≈ 0.388 µg/mL)
CC(C)Cc1cn(-c2nc(CN3CCCC3)cs2)c2cc(Cl)ccc12	1.9 (≈ 0.711 µg/mL)
CC(=O)Nc1ccc(S(=O)(=O)Nc2ccccc2Nc2ccc(C)cc2)cc1	1.9 (≈ 0.751 µg/mL)
COCc1nc(N2CCNCC2)c2c(C)nn(-c3cccc(Cl)c3)c2n1	1.9 (≈ 0.708 µg/mL)

SMILES	MIC90 [µM]
O=C(C=Cc1cccs1)N1CCN(Cc2ccc(Br)s2)CC1	2.8 (≈ 1.11 µg/mL)
CN1CCN(c2ccc(C(F)(F)F)cc2NC(=O)c2ccccn2)CC1	7.2 (≈ 2.62 µg/mL)
NC(=O)c1csc(-c2cccc(OCCNCCc3cccc(F)c3)c2)n1	2 (≈ 0.771 µg/mL)
CCOc1ccc(-c2nc(NC(=O)C3CCCN3S(=O)(=O)c3cccs3)sc2C)cc1 (centres undefined)	2 (≈ 0.955 µg/mL)
COC(=O)c1c(NC(=O)c2c(F)c(F)c(F)c(F)c2F)sc2c1CCCCC2	2 (≈ 0.839 µg/mL)
Cn1nc(C(=O)N2CCc3sccc3C2c2ccccc2)c2ccccc2c1=O (centres undefined)	2 (≈ 0.803 µg/mL)
CC(C)CCN(c1ccc(C#N)c(Cl)c1)[C@H]1CCNC1	2 (≈ 0.584 µg/mL)
O=C(Nc1nc(-c2ccccn2)cs1)c1cccc(F)c1	2 (≈ 0.599 µg/mL)
CC1=C(C(=O)Nc2ccc3[nH]ncc3c2)C(c2cc(C#Cc3ccccc3)cs2)NC(=O)N1 (centres undefined)	2 (≈ 0.907 µg/mL)
Cc1cc(C)n(-c2nc(O)cc(-c3ccccc3)n2)n1	2 (≈ 0.533 µg/mL)
Cc1nc2ccccn2c1C(=O)NCc1ccccc1	3.4 (≈ 0.902 µg/mL)
COc1ccc(N(C(=O)CNc2ccccc2Nc2ccccc2)C2CCCC2)cc1	2.1 (≈ 0.873 µg/mL)
O=C(Nc1nc(-c2ccccn2)cs1)c1cc2c(F)cccc2s1	2.1 (≈ 0.746 µg/mL)
COc1ccccc1-c1cc(O)c2c(C)nn(-c3ccccc3)c2n1	2.1 (≈ 0.696 µg/mL)
O=c1c2sc(-c3ccc(Cl)cc3)cc2ncn1-c1ccc(OCCN2CCCC2)c(Cl)c1	2.1 (≈ 1.02 µg/mL)
CC(=O)N1CCc2ccc(/C=C/C(=O)O)cc21	2.1 (≈ 0.486 µg/mL)
Cc1ccc2nc(C(F)(F)F)c(C(=O)NCc3cccc(OC(C)C)c3)n2c1	1.9 (≈ 0.744 µg/mL)
Clc1cc(N2CCNCC2)cc(Cl)c1OCc1ccccc1	2.2 (≈ 0.742 µg/mL)
Cc1cccc2nc(C(=O)Nc3nc(CN4CCC(C)CC4)cs3)cn12	2 (≈ 0.739 µg/mL)
Cc1csc2nc(-c3ccccn3)nc(Nc3ccncn3)c12.O=C(O)C(F)(F)F	1.3
CCc1c(C)nc(-n2nc(C)cc2NC(=O)c2cccc3ccccc23)[nH]c1=O	1.8 (≈ 0.697 µg/mL)
CSc1ccccc1C(=O)Nc1nc(-c2ccccn2)cs1	3.8 (≈ 1.24 µg/mL)
